Experimental findings from PMC9016803, “Mitochondria-targeted half-sandwich iridium(III)-Cp*-arylimidazophenanthroline complexes as antiproliferative and bioimaging agents against triple negative breast cancer cells MDA-MB-468” (RSC Advances, 2022) are described below.

Series [1] can be described thus: Solubility study. The class given is physicochemical. To be noted: DMSO-10% DMEM medium (1 : 99 v/v, comparable to cell media). On the procedure: (§1) Both hydrophilicity and lipophilicity studies were performed to determine the tumour-inhibiting potential of the metal complexes. These complexes were highly soluble in DMSO and moderately soluble in H2O, MeOH, EtOH and CH3CN. […] The lipophilicity of these complexes was determined by performing an n-octanol/water partition coefficient (log Po/w, where Po/w = the octanol/water partition coefficient) study using the shake flask method (Table 1).[24] The experimental log Po/w values of these complexes were determined to be in the range of 0.27–0.34 (Table 1). […] This change in the electrolytic behaviour of the complexes from 1 : 1 to 1 : 2 can be attributed to the dissociation of the Ir–Cl bond and subsequent aquation of the complexes.

The nature of series [2]: Stability study by time-dependent UV-vis spectroscopy. The class given is physicochemical. On the procedure: The stability studies of complex IrL1 were conducted in […] different solvents, i.e. aqueous DMSO (H2O : DMSO = 9 : 1) and aqueous GSH medium (Fig. 3) respectively in presence or absence of different concentrations of NaCl. It is essential that the complexes remain stable in the biological environments of cells, and thus the stability studies were performed. […] It has been reported that many cancer cells become resistant to various drugs by increasing their cellular glutathione level.[28]
For doing the cell culture the cells were retained in DMEM media (Gibco), added with 10% fetal bovine serum (Himedia, India), 1% penicillin and streptomycin and 1% of Glutmax (Gibco, Thermo Scientific, USA) at 37°C in 5% CO2. […]
(§2) In vitro cytotoxicity study was measured by standard MTT assay protocol.1 First the prepared complexes (IrL1-IrL5) were dissolved in 0.1% DMSO followed by dilution with DMEM medium. […] Then the resultant suspension was kept on micro vibrator for 10 min and the absorbance was recorded at λ = 570 nm in ELISA plate reader. […] The data were represented as the growth inhibition percentage i.e. % growth inhibition = 100 − [(AD × 100)/AB], where AD, measured absorbance in wells which contain samples and AB, measured absorbance for blank wells (cells with a medium and a vehicle). […]

Series [3] relates to MDA-MB-468 cells. In words: ROS generation, DCFDA staining. In kind it is cell-based. The method, then: Our results indicated a dose dependent increase in ROS production in the MDA-MB-468 cells treated with IrL1 concentrations 1 μM and 3 μM. The extent of ROS production is indicated by the 2′,7′-dichlorofluorescein (DCF) formed by the deacetylation and subsequent oxidation of 2′,7′-dichlorofluorescin diacetate (DCFDA) through cellular esterases and ROS. […] ROS production was absent in untreated control. However, in the positive control, treated with H2O2, ROS production was high which is ∼99% (Fig. 11).
Colocalization study and ROS generation studies were performed using live cell lines in their log phase.

Series [4] is described as follows: n-Octanol/water partition coefficient, shake flask method. The class given is physicochemical. The method, then:
as §1, with “the complexes. […]” for “the complexes.”
n-Octanol–water partition coefficient (log P o/w)9
The log Po/w of the iridium complexes were adhering to shake flask method using the previously published procedure. A known amount of each complex (IrL1-IrL5) was suspended in water (pre-saturated with n-octanol) and shaken for 48 h on an orbital shaker.
To allow the phase separation, the solution was centrifuged for 10 min at 3000 rpm. To obtain the partition coefficient, different ratios (0.5: 1, 1: 1, and 2: 1) of the saturated solutions were shaken with pre-saturated n-octanol for 20 min on an orbital shaker and followed the same procedure. Aliquots of the aqueous and octanol layers were pipetted out separately and the absorbances were measured with UV-Vis spectrophotometer using proper dilution. Each set was performed in triplicate, concentration of the substances in each layer was calculated using the respective molar extinction coefficients and the partition coefficient (log P o/w) values were obtained from the ratio.

The subject of series [5] is immortalized human keratinocyte cell line HaCaT. In words: MTT in vitro cytotoxicity assay, normal cells. In kind it is cell-based. To be noted: 48 h. On the procedure: Consequently, the IrL1 complex doses of 1 μM, 3 μM and 5 μM were selected for further experimental analysis. Furthermore, the possible cytotoxic effects of IrL1 on normal cell line were also examined on the immortalized human keratinocyte cell line HaCaT.
Cytotoxicity study of all the synthesized compounds against triple negative breast cancer cells MDA-MB-468 and immortalized human keratinocyte cell line HaCaT were done with a drug incubation period of 48 h by following standard procedure that were mentioned in ESI. ^† Preliminary studies were done to understand the mode of action of the complex to induce cytotoxicity using flow cytometric methods. […]
as §2

By Solubility is commonly meant how much of the substance goes into solution per volume. Usually IC50 stands for the point on the concentration scale where inhibition reaches its midpoint. Lower therefore signals greater potency. In series [1], “[Iridium(III)-Cp*-2-(naphthalen-1-yl)-1H-imidazo[4,5-f][1,10]phenanthroline]PF6 [IrL1]” had a Solubility of 700 µM. Moreover, the decrease in absorbance in series [2] (aqueous DMSO (H2O : DMSO = 9 : 1), after 24 h) is on record as 15–30%. For the same substance, the “effect of GSH on stability” value in series [2] (excess (10 eq.) glutathione, time-dependent UV spectroscopy) is reported as “GSH didn't have much impact on the stability”. For the same substance, the DCF positive cells in series [3] (1 μM) was 55.01%; in series [3] (3 μM) it was 70.67%. In addition, the “log P (n-octanol/water partition coefficient)” value in series [4] was 0.27 ± 0.07. The substance also registered an IC50 in series [5] of 11.4 µM.
